We go through 12 compounds from patent US10316025B2, “Substituted piperazine compounds and methods of use and use thereof” (SUNSHINE LAKE PHARMA CO., LTD., priority 2015, dated 2019).

pIC50, pKi: −log10 of the molar value.

For one series, the target named is T1, 5-HT1A receptors (Homo sapiens, UniProt P08908).
T1 construct: host or cells: human HEK-293 cell homogenates
T1 sequence (P08908 1-422): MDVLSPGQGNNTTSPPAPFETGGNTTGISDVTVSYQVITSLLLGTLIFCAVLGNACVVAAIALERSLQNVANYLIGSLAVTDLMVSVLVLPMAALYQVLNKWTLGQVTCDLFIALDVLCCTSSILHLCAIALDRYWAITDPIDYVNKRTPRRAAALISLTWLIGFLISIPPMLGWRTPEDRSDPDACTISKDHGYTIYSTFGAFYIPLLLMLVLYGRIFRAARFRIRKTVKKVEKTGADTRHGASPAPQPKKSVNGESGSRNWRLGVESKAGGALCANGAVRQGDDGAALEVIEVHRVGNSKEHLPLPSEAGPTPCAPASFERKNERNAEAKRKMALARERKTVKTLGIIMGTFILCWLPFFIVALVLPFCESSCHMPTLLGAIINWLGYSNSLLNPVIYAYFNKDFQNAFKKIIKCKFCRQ
The series is described as follows: h5-HT1A binding affinity test ([3H]8-OH-DPAT, HEK-293 cell homogenates). To be noted: 0.3 nM [3H]8-OH-DPAT, 22°C, 60 min, Ki from IC50 by ChengPrusoff equation. The protocol:
Human HEK-293 cell homogenates (36 μg of protein) were incubated at 22° C. for 60 minutes with 0.3 nM of [^3H]8-OH-DPAT (Perkin-Elmer) in the absence or presence of the test compound in a buffer solution containing 50 mM of Tris-HCl (pH 7.4), 10 mM of MgSO4, 0.5 mM of EDTA and 2 μg/mL aprotinine.
The non-specific binding value was determined by incubating the same mixture in the presence of 10 μM of 8-OH-DPAT, which was used as the standard reference compound. Competitive curve was obtained by testing data of 8-OH-DPAT in each experiment at several concentrations.
The incubated samples were filtered fastly using a 96-sample cell harvester (Unifilter, Packard) through fiberglass filter membranes (GF/B, Packard) pre-soaked with 0.3% PEI in vacuo, and washed several times with an ice cold 50 mM of Tris-HCl. The filter membranes were dried and the retained radioactivity was measured in a scintillation counter (Topcount, Packard) using a scintillation cocktail (Microscint 0, Packard). The experimental results were expressed as inhibition percentage of radioactive ligand specific binding relative to control groups.
The experiments of combining [^3H]8-OH-DPAT (0.3 nM) with 5-HT1A receptors of human HEK-293 cells were accomplished by using Scintillation Proximity Assay on membrane. The test compounds were required to be tested at least three times in the case of a concentration of more than 6 log, and the data were analyzed by the method of nonlinear regression using Hill equation curve to obtain an IC50 value, and then the IC50 value was calculated by ChengPrusoff equation to obtain a Ki value.

Series [1] concerns the target T2, human 5-HT transporters (SERT) (Homo sapiens, UniProt P31645).
T2 construct: expressed in transfected cells; host or cells: CHO cells (membrane homogenate)
Nature of the series: Affinity to CHO cells-transfected human-derived 5-HT transporter ([3H]imipramine binding). To be noted: 2 nM [3H]imipramine, CHO cell membrane homogenate, 22°C, 60 min. Here is the method:
To a mixed system of cell membrane homogenate protein (12 μg), 2 nM of [^3H] imipramine and buffer solution (50 mM of Tris-HCl (pH 7.4), 120 mM of NaCl, 0.5 mM of KCl and 0.1% BSA) was added or not added the test compound at 22° C., and then the resulting mixture was incubated for 60 minutes.
To the mixed system mentioned above was added 10 μM of imipramine for measuring nonspecific binding values.
After incubation, the samples were filtered rapidly in vacuo with a 96-sample cell harvester (Unifilter, Packard) through glass-fiber filters (GF/B, Packard) pre-soaked with 0.3% PEI and rinsed several times with an ice-cold 50 mM of Tris-HCl and 150 mM of NaCl. The filters were dried and the retained radioactivity was measured by means of a scintillation counter (Topcount, Packard) using a scintillation cocktail (Microscint O, Packard). Each experimental result was expressed as a percentage inhibition of radioactive ligand specific binding relative to control groups.
The standard reference compound was imipramine, and ICso values were calculated by the competitive curve obtained from a series of concentrations of the experimental test. The experimental results of the affinity of the compounds disclosed herein to human 5-HT transporters (SERT) were listed in Table A.

A short description of series [2]: Pharmacokinetic evaluation in rats after intravenous or gavage administration. To be noted: for AUC(0-inf) / AUC(0-t) / Cmax / Tmax / clearance / half-life / Vd: SD, rat, plasma; for Vd: read-out: Vss. The class given is in vivo, SD rats. Here is the method:
The pharmacokinetic evaluation of the compound disclosed herein in rats, dogs and monkeys was carried out in this invention, and animal information as described in Table 1.
The compounds disclosed herein were administered in form of a saline solution containing 5% DMSO, 5% Kolliphor HS 15, 2% (2% HCl) and 88% Saline, or a physiological saline solution containing 10% DMSO, 10% Kolliphor HS 15 and 80% physiological saline to an animal subject. The animals of the intravenous administration group were administered at a dose of 1 mg/kg, and 0.3 mL of vein blood samples were collected at the time points of 0, 0.083, 0.25, 0.5, 1.0, 2.0, 5.0, 7.0 and 24 h after drug administration, then each blood sample was processed to separate plasma by centrifugation at 3000 rpm or 4000 rpm for 10 minutes, and the plasma samples were collected and stored at −20° C. or −70° C. The animals of the gavage administration group were administered at a dose of 2.5 mg/kg, and 0.3 mL of vein blood samples were collected at the time points of 0, 0.083, 0.25, 0.5, 1.0, 2.0, 5.0, 7.0 and 24 h after drug administration, then each blood sample was processed to separate plasma by centrifugation at 3000 rpm or 4000 rpm for 10 minutes, and the plasma samples were collected and stored at −20° C. or −70° C.
The above plasma was analyzed by the LC/MS/MS system.
The LC/MS/MS system for the analysis comprises an Agilent 1200 Series Vacuum Degasser, binary syringe pumps, a well-plate autosampler, a column oven and an Agilent G6430A Triple Quadrupole Mass Spectrometer equiped with an electrospray ionization (ESI) source.
Analysis was performed on waters XBridge C18 (2.1×50 mm, […] column, and 5 μL of sample was injected). Conditions of the analysis comprise: a mobile phase consisting of mobile phase A (water, 2 mM ammonium formate and 0.1% formic acid) and mobile phase B (methanol, 2 mM ammonium formate and 0.1% formic acid). A flow rate of 0.4 mL/min.

T2 sequence (P31645 whole entry): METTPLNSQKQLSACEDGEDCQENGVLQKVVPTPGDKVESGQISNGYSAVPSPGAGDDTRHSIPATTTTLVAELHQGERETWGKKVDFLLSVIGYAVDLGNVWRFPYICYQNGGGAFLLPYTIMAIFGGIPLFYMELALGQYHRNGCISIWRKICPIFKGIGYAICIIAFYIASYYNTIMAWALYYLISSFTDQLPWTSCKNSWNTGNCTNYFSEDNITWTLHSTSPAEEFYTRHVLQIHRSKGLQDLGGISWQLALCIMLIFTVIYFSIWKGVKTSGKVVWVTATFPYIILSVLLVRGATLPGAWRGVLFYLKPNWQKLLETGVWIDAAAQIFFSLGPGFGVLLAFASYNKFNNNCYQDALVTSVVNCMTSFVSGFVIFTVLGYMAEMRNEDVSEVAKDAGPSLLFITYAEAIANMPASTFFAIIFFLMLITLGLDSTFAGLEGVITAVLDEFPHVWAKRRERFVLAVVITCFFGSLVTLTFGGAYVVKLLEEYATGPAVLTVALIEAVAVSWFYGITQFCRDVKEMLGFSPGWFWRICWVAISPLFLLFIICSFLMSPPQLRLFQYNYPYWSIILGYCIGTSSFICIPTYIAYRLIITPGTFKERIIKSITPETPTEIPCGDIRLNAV

A word on the pKi: it is −log10 of the Ki, conventionally taken in molar units. Read a high pKi as a small Ki. The term pIC50 denotes the negative decadic logarithm of the IC50, by convention in mol/L. Lower therefore signals a large IC50. At 5-HT1A receptors, `COc1cc(F)ccc1-c1cnc(N2CCN(CCCc3c[nH]c4ccc(C#N)cc34)CC2)nc1` [Example 16, 3-(3-(4-(5-(4-fluoro-2-methoxyphenyl)pyrimidin-2-yl)piperazin-1-yl)propyl)-1H-indole-5-carbonitrile] showed a pKi of 8.15. In addition, the pIC50 in series [1] was 9.06.

What is called AUC(0-inf) is the area under the concentration-time curve extrapolated to infinity. For orientation: AUC(0-t) means the area under the concentration-time curve up to a stated or last time point. The low end stands for low exposure, the high end for high exposure. A word on the Cmax: it is the peak of the concentration-time curve. One may read the Tmax as the time at which the peak concentration occurs. As a reminder, the half-life is the time needed for the level to fall by half in the phase considered. Low readings indicate rapid decline, high ones slow decline. At 5-HT1A receptors, `N#Cc1ccc2[nH]cc(CCCN3CCN(c4ncc(-c5ccc(Cl)cc5)cn4)CC3)c2c1` [Example 12, 3-(3-(4-(5-(4-chlorophenyl)pyrimidin-2-yl)piperazin-1-yl)propyl)-1H-indole-5-carbonitrile] gave a pKi of 8.26. In series [1], this compound gave a pIC50 of 9.49. Moreover, in series [2] (iv, 1 mg/kg), the AUC(0-inf) amounted to 2240 ng·h/mL, the area under the curve AUC(0-t) is 1870 ng·h/mL, the Cmax turned out to be 444 ng/mL and the Tmax is 0.083 h. Moreover, in series [2] (iv, 1 mg/kg), the clearance worked out at 7.5 mL/min/kg, the half-life is 9.52 h and the Vd came out at 5.46 L/kg. In series [2] (po, 2.5 mg/kg), the AUC(0-t) turned out to be 2950 ng·h/mL, the Cmax was 207 ng/mL, the Tmax amounted to 5.67 h and the F is recorded as 52.62%.

On to `COc1ccccc1-c1cnc(N2CCN(CCCc3c[nH]c4ccc(C#N)cc34)CC2)nc1` [Example 10], for which, on 5-HT1A receptors, the pKi was 8.47. The pIC50 in series [1] is 9.08.

In the case of `N#Cc1ccc2[nH]cc(CCCCN3CCN(c4ncc(-c5ccc(F)cc5)cn4)CC3)c2c1` [Example 7, 3-(4-(4-(5-(4-fluorophenyl)pyrimidin-2-yl)piperazin-1-yl)butyl)-1H-indole-5-carbonitrile], the pKi on 5-HT1A receptors was 8.43. Also, the pIC50 in series [1] was 9.06. Besides, in series [2] (iv, 1 mg/kg), the area under the curve AUC(0-inf) amounted to 1030 ng·h/mL, the AUC(0-t) stood at 1010 ng·h/mL, the Cmax turned out to be 299 ng/mL and the Tmax was 0.139 h. In addition, in series [2] (iv, 1 mg/kg), the clearance was determined as 16.7 mL/min/kg, the half-life is 4.64 h and the Vd was 5.03 L/kg. In series [2] (po, 2.5 mg/kg), the AUC(0-inf) worked out at 2010 ng·h/mL, the exposure AUC(0-t) stood at 1960 ng·h/mL, the highest level (Cmax) was 194 ng/mL and the time of peak concentration (Tmax) is 2.67 h. In series [2] (po, 2.5 mg/kg), this compound showed a half-life of 4.37 h and an F of 78.1%.

Turning to `N#Cc1ccc2[nH]cc(CCCCN3CCN(c4ncc(-c5cccc(C(N)=O)c5)cn4)CC3)c2c1` [Example 1, 3-(2-(4-(4-(5-cyano-1H-indol-3-yl)butyl)piperazin-1-yl)pyrimidin-5-yl)benzamide], on 5-HT1A receptors, the pKi is 8.54. Besides, the negative logarithm of the IC50 (pIC50) in series [1] is 9.07.

Compound `N#Cc1ccc2[nH]cc(CCCCN3CCN(c4ncc(-c5ccc(C(N)=O)cc5)cn4)CC3)c2c1` [Example 5, 4-(2-(4-(4-(5-cyano-1H-indol-3-yl)butyl)piperazin-1-yl)pyrimidin-5-yl)benzamide] gave a pKi at 5-HT1A receptors of 8.07. The compound also gave a negative-log IC50 (pIC50) in series [1] of 9.10.

As to `N#Cc1ccc2[nH]cc(CCCCN3CCN(c4ncc(-c5ccc(F)cc5F)cn4)CC3)c2c1` [Example 13, 3-(4-(4-(5-(2,4-difluorophenyl)pyrimidin-2-yl)piperazin-1-yl)butyl)-1H-indole-5-carbonitrile], at 5-HT1A receptors, the pKi was 8.89. The same compound showed a pIC50 in series [1] of 8.92. Besides, in series [2] (iv, 1 mg/kg), the AUC(0-inf) stood at 724 ng·h/mL, the AUC(0-t) was found to be 643 ng·h/mL, the peak level (Cmax) was 330 ng/mL and the Tmax came to 0.083 h. In addition, in series [2] (iv, 1 mg/kg), the clearance turned out to be 23.8 mL/min/kg, the half-life was 3.9 h and the Vd amounted to 6 L/kg. In series [2] (po, 2.5 mg/kg), the AUC(0-inf) was 1160 ng·h/mL, the AUC(0-t) amounted to 1070 ng·h/mL, the highest level (Cmax) was 152 ng/mL and the Tmax came to 1 h. In series [2] (po, 2.5 mg/kg), the half-life is 4.14 h and the F is 66.4%.

`COc1ccccc1-c1cnc(N2CCN(CCCCc3c[nH]c4ccc(C#N)cc34)CC2)nc1` [Example 9, 3-(4-(4-(5-(2-methoxyphenyl)pyrimidin-2-yl)piperazin-1-yl)butyl)-1H-indole-5-carbonitrile]: the pKi at 5-HT1A receptors was 8.57. The compound also had a pIC50 in series [1] of 9.00.

`N#Cc1ccc2[nH]cc(CCCN3CCN(c4ncc(-c5ccc(F)cc5)cn4)CC3)c2c1` [Example 8, 3-(3-(4-(5-(4-fluorophenyl)pyrimidin-2-yl)piperazin-1-yl)propyl)-1H-indole-5-carbonitrile] had a pKi on 5-HT1A receptors of 8.72. For the same compound, in series [1], the pIC50 was 8.89. Also, in series [2] (iv, 1 mg/kg), the AUC(0-inf) was determined as 1250 ng·h/mL, the AUC(0-t) is 1180 ng·h/mL, the Cmax came to 195 ng/mL and the Tmax worked out at 0.139 h. Also, in series [2] (iv, 1 mg/kg), the clearance came out at 13.4 mL/min/kg, the half-life was 5.85 h and the Vd came out at 6.01 L/kg. For the same compound, in series [2] (po, 2.5 mg/kg), the AUC(0-inf) is 2070 ng·h/mL, the area under the curve AUC(0-t) came to 2140 ng·h/mL, the peak level (Cmax) was 180 ng/mL and the Tmax amounted to 4 h. For the same compound, in series [2] (po, 2.5 mg/kg), the half-life was 4.85 h and the F turned out to be 68.48%.

At 5-HT1A receptors, `COc1cc(F)ccc1-c1cnc(N2CCN(CCCCc3c[nH]c4ccc(C#N)cc34)CC2)nc1` [Example 15, 3-(4-(4-(5-(4-fluoro-2-methoxyphenyl)pyrimidin-2-yl)piperazin-1-yl)butyl)-1H-indole-5-carbonitrile] gave a pKi of 7.96. Moreover, in series [1], the pIC50 was 9.02.

With `N#Cc1ccc2[nH]cc(CCCCN3CCN(c4ncc(-c5ccc(Cl)cc5)cn4)CC3)c2c1` [Example 11, 3-(4-(4-(5-(4-chlorophenyl)pyrimidin-2-yl)piperazin-1-yl)butyl)-1H-indole-5-carbonitrile], the negative-log Ki (pKi) on 5-HT1A receptors was 7.89. In series [1], this compound showed a pIC50 of 8.80.

With `N#Cc1ccc2[nH]cc(CCCN3CCN(c4ncc(-c5ccc(C(N)=O)cc5)cn4)CC3)c2c1` [Example 6, 4-(2-(4-(3-(5-cyano-1H-indol-3-yl)propyl)piperazin-1-yl)pyrimidin-5-yl) benzamide], the negative logarithm of the Ki (pKi) on 5-HT1A receptors was 8.38. In addition, the negative-log IC50 (pIC50) in series [1] is 9.03.
